According to patent publication US20230017266A1, “Cyclooxygenase-2 Inhibition for the Treatment of SAA-high Asthma” (THE USA, AS REPRESENTED BY THE SECRETARY, DEPT. OF HEALTH …, priority 2019, published 2023):

How the values were obtained:
CD14^+ monocytes = assay: HDL+SAA1-induced cytokine secretion by ex vivo CD14+ monocytes (ELISA); assay type: cell-based, human; conditions: for HDL+SAA1-mediated increases in cytokine secretion: 24 h
Method: Isolation of Peripheral Blood Monocytes. Peripheral blood monocytes were isolated using a two-step process. Peripheral blood was diluted with PBS at a 1:1 ratio, slowly overlaid onto 30 ml of Lymphoprep™ (catalog #07811, StemCell Technologies, Vancouver Canada) in a 50 ml conical tube, and centrifuged at 400×g for 25 min without braking. The peripheral blood mononuclear cell (PBMC) layer was carefully transferred to another 50 ml conical tube, washed with PBS, followed by two washes with FACS buffer (0.5 mM EDTA, 1% BSA, and 1% mouse serum in PBS). Monocytes subsets were identified and sorted by flow cytometry using the following antibodies: PE mouse anti-human CD45 clone HI30 (catalog #555483), BV421 mouse anti-human CD14 clone MφP9 (catalog #563743), and FITC mouse anti-human CD16 clone B73.1 (catalog #561308), and a FACS ARIA Fusion sorter equipped with 355, 407, 488, 532 and 640 nm LASER lines using FACS DIVA 8.0 software (all from BD Biosciences, San Jose, Calif.). The gating strategy identified a population of debris-free, single, live, ^SSCmoderate/high, CD45^+ cells from which CD14^+/CD16^− (classical), CD14^+/CD16^+ (intermediate), CD14^dim/CD16^+ (non-classical), and CD14^+ (classical and intermediate) cells were sorted and utilized for experiments, as indicated (Supplemental FIG. 4).
HDL+SAA1 Stimulation of Peripheral Blood Monocytes Subsets. […] As previously described, normal HDL was isolated from plasma obtained from healthy subjects by sequential KBr differential gradient ultracentrifugation at 330,000 g and extensive dialysis with 50 mM HEPES, 50 mM NaCL, 5 mM MgCl2 and 2 mM CaCl2, pH 7.0, at 4° C. Normal HDL was complexed with recombinant human serum amyloid A-1 at a 2:1 ratio by mixing and incubated at RT overnight to generate HDL+SAA1, which was filtered using a 100-kDa exclusion filter (Amicon Ultra Centrifuge Filters, Millipore, Darmstadt, Germany) to remove any uncomplexed SAA1. Normal HDL was also complexed with the amount of lipopolysaccharide (catalog # L4391, E. coli 0111:B4, y-irradiated, MilliporeSigma, St. Louis, Mo.) present in recombinant human SAA1. Additionally, classical CD14^+ monocytes were treated with the P2X7R antagonist, A438079, the IKK inhibitor, BAY-11-7082, the IKKβ (IKK-2) inhibitor, TPCA-1, or the selective COX-2 inhibitor, celexocib, all from MilliporeSigma(St. Louis, Mo.). Cells were also treated with the FPR2 antagonist, WRW4, or diclofenac from Tocris (Minneapolis, Minn.). The amount of IL-1β, IL-6, TNF-α and IL-10 secreted into cell culture supernatants was quantified using human DuoSet ELISA kits (R&D Systems) and data were acquired using a SpectraMax M2 spectrophotometer (Molecular Devices, San Jose, Calif.). Western blotting, as previously described^43, was performed using antibodies directed against COX-1 (catalog #160110) and COX-2 (catalog #160112), both from Cayman Chemical (Ann Arbor, Mich.). Equivalency of protein loading was established using an antibody directed against GAPDH (catalog #MAB5718) from R&D Systems (Minneapolis, Minn.). Western blots images were captured using an iBright FL1000 Western Blot Imaging System (ThermoFisher Scientific, Waltham, Mass.) and quantified using NIH ImageJ software (imagej.nih.gov). […]

miR-155-5p = miR-155-5p levels in CD14+ monocytes cultured with HDL+SAA1 (qRT-PCR); assay type: cell-based, human; conditions: 24 h
Method: Quantitative RT-PCR (qRT-PCR). Total RNA was purified using the Direct-Zol™ RNA MiniPrep kit and total RNA (100 ng) was reverse transcribed into cDNA using the High-Capacity cDNA Reverse Transcription Kit (Applied Biosystems, Foster City, Calif.). Polymerase chain reactions (PCR) were performed on duplicate cDNA samples using TaqMan Universal PCR Master Mix, FAM-MGB dye-labeled Taqman® PTGS2 probe (Assay ID Hs00153133_m1, catalog #4331182), and a 7900 Real Time PCR System running Sequence Detector version 2.4 software, all from Applied Biosystems (Foster City, Calif.). […] For quantification of miR-155-5p expression, miRNA present in total RNA (10 ng) was converted to cDNA using the microRNA cDNA Reverse Transcription kit (Applied Biosystems, Foster City, Calif.). Polymerase chain reaction (PCR) was performed on duplicate cDNA samples using TaqMan Universal PCR Master Mix, Taqman® MicroRNA Assay for has-miR-155-5p (Assay ID #002623, catalog #4427975), and a 7900HT Fast Real-Time PCR System running Sequence Detector version 2.4 software (ThermoFisher Scientific, Waltham, Mass.). miR-155-5p expression was quantified relative to expression of U6 snRNA using the control sample as calibrator to calculate the difference in Ct values (ΔΔCt) and presented as relative mRNA expression.

[1] = A438079 10 μM, pre-treated 1 h, HDL+SAA1 24 h

## Clc1cccc(-c2nnnn2Cc2cccnc2)c1Cl [A438079]
CD14^+ monocytes; [1]
  HDL+SAA1-mediated secretion of IL-1β: significantly reduced
  HDL+SAA1-mediated secretion of IL-6: significantly reduced
  HDL+SAA1-mediated secretion of IL-10: significantly reduced
  HDL+SAA1-mediated secretion of TNF-α: significantly reduced
miR-155-5p; A438079 10 μM
  HDL+SAA1-mediated increases in miR-155-5p: significantly reduced

## Cc1ccc(S(=O)(=O)/C=C/C#N)cc1 [BAY 11-7082]
CD14^+ monocytes; BAY-11-7082 10 μM
  HDL+SAA1-mediated increases in cytokine secretion: prevented
miR-155-5p; BAY-11-7082 10 μM
  HDL+SAA1-mediated increases in miR-155-5p: attenuated

## NC(=O)Nc1sc(-c2ccc(F)cc2)cc1C(N)=O [TPCA1]
CD14^+ monocytes; TPCA-1 1 μM
  HDL+SAA1-mediated increases in cytokine secretion: prevented
miR-155-5p; TPCA-1 1 μM
  HDL+SAA1-mediated increases in miR-155-5p: attenuated
